Measurements: US10183950B2, “Thienopyrimidine inhibitors of atypical protein kinase C” (Cancer Research Technology Limited, priority 2011, dated 2019)
Where two headings read alike, the source gives them in different places.

Assays:
kinase-domain human PKCι = target: T1, kinase-domain human PKCι (Homo sapiens, UniProt P41743); assay: PKCι IC50 IMAP fluorescence polarisation assay, kinase-domain enzyme; format: biochemical; details: kinase domain PKCi at 2 μM ATP
T1 construct: Recombinant, kinase-domain human PKCι is expressed and purified in-house; made in house
T1 sequence (P41743 254-522 limits assumed): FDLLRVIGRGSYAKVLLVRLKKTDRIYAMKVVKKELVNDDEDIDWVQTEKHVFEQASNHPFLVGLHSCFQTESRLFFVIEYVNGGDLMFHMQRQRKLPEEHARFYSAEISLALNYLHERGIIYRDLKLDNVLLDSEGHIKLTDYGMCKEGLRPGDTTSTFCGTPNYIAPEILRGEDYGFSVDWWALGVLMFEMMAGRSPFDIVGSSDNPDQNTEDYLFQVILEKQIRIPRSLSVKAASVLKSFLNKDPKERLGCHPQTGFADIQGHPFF
Protocol: Assays are based on the ability of PKCι to phosphorylate a commercially available peptide substrate in vitro. […] Recombinant, full-length human PKCι expressed in Sf21 insect cells is also commercially available. Recombinant, kinase-domain human PKCι is expressed and purified in-house.
The procedure below explains how dose response curves for inhibitors of PKCι are obtained.
Compounds to be tested are dissolved in 100% DMSO. […] 1 μl is plated into 384 well black low-binding flat bottomed assay plates which are used immediately. Dilutions and additions of compound to assay plates are carried out using Matrix WellMate® and Matrix PlateMate® Plus liquid handling systems.
The final concentration of peptide substrate in the assay is 100 nM. […] Relevant controls are included, namely no compound and no enzyme. […] The reaction is allowed to incubate for 60 minutes at room temperature, before the reaction is stopped and developed by the addition of 20 μl IMAP™ development reagent (Molecular Devices). IMAP development reagent consists of 0.25% (v/v) IMAP progressive binding reagent, 17% (v/v) IMAP progressive binding buffer A and 3% (v/v) IMAP progressive binding buffer B. The plates are then incubated for 2 hours at room temperature before being read using an appropriate plate reader, for example a Molecular Devices HT Analyst or a BMG Pherastar.

full-length human PKCι = target: T2, full-length human PKCι (Homo sapiens, UniProt P41743); assay: PKCι IC50 IMAP fluorescence polarisation assay, full-length enzyme; format: biochemical; details: full length PKCi at 15 μM ATP
T2 construct: Recombinant, full-length human PKCι expressed in Sf21 insect cells is also commercially available; purchased; host or cells: Sf21 insect cells
T2 sequence (P41743 1-596): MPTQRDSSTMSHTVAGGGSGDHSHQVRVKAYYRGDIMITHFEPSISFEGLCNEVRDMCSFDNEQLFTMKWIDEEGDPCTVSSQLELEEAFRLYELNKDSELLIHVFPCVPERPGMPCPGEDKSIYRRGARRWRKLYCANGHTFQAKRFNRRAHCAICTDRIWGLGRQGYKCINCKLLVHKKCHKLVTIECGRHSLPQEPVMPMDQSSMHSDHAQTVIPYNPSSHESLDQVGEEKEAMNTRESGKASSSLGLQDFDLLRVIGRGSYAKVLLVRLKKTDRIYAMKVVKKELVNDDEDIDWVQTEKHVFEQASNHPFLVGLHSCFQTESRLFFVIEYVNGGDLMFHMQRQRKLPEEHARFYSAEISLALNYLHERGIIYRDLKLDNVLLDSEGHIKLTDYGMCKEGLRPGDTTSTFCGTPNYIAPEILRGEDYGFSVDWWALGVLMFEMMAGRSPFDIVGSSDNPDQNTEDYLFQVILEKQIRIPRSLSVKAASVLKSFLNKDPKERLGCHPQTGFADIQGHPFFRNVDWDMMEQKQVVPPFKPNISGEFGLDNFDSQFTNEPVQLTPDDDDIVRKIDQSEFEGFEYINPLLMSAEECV

[1] = read-out: IC50 in IMAP assay against kinase domain PKCi (Activity)
[2] = read-out: IC50 in IMAP assay against kinase domain PKCi
[3] = read-out: IC50 in IMAP assay against full length PKCi (Activity)
[4] = read-out: IC50 in IMAP assay against full length PKCi

Row | SMILES | IC50 (kinase-domain human PKCι; [1]) [µM] | IC50 (full-length human PKCι; [4]) [µM] | also measured
1 | CC1CCc2c(sc3nc(-c4ccncc4)nc(NCCN)c23)C1 (centres unmarked) [compound 21, N*1*-(7-Methyl-2-pyridin-4-yl-5,6,7,8-tetrahydro-benzo[4,5]thieno[2,3-d]pyrimidin-4-yl)-ethane-1,2-diamine] | 0.1 to 1 | – | –
2 | C[C@@H](N)CNc1nc(-c2ccncc2)nc2cc(-c3ccccc3)sc12 [compound 366, (R)-N*1*-(6-Phenyl-2-pyridin-4-yl-thieno[3,2-d]pyrimidin-4-yl)-propane-1,2-diamine] | – | – | IC50 (kinase-domain human PKCι; [2]): 10 to 40 µM
3 | N[C@H](COc1nc(-c2ccncc2)nc2sc3c(c12)CCCC3)Cc1ccccc1 [compound 143, (S)-2-Phenyl-1-(2-pyridin-4-yl-5,6,7,8-tetrahydro-benzo[4,5]thieno[2,3-d]pyrimidin-4-yloxymethyl)-ethylamine] | 0.1 to 1 | – | –
4 | Cc1csc2c(OC[C@H](N)Cc3ccccc3)nc(-c3ccncc3)nc12 [compound 482, (R)-1-(7-Methyl-2-pyridin-4-yl-thieno[3,2-d]pyrimidin-4-yloxymethyl)-2-phenyl-ethylamine] | – | – | IC50 (kinase-domain human PKCι; [2]): 10 to 40 µM
5 | N[C@@H](COc1nc(-c2ccncc2)nc2sc3c(c12)CCCC3)Cc1csc2ccccc12 [compound 176, (R)-1-Benzo[b]thiophen-3-ylmethyl-2-(2-pyridin-4-yl-5,6,7,8-tetrahydro-benzo[4,5]thieno[2,3-d]pyrimidin-4-yloxy)-ethylamine] | 10 to 40 | – | –
6 | N[C@H](COc1nc(-c2ccncc2)nc2sc3c(c12)CCCC3)Cc1c[nH]c2ccccc12 [compound 158, (S)-2-(1H-Indol-3-yl)-1-(2-pyridin-4-yl-5,6,7,8-tetrahydro-benzo[4,5]thieno[2,3-d]pyrimidin-4-yloxymethyl)-ethylamine] | 10 to 40 | – | –
7 | N[C@@H](COc1nc(-c2ccncc2)nc2sc3c(c12)CCCC3)Cc1cccs1 [compound 170, (R)-2-(2-Pyridin-4-yl-5,6,7,8-tetrahydro-benzo[4,5]thieno[2,3-d]pyrimidin-4-yloxy)-1-thiophen-2-ylmethyl-ethylamine] | 10 to 40 | – | –
8 | Cc1sc2nc(-c3ccncc3)nc(NC[C@H](C)N)c2c1C [compound 37, (S)-N*1*-(5,6-Dimethyl-2-pyridin-4-yl-thieno[2,3-d]pyrimidin-4-yl)-propane-1,2-diamine] | 1 to 10 | – | –
9 | C[C@H](N)CNc1nc(-c2ccncc2)nc2sc3c(c12)CCCCCC3 [compound 25, (S)-N*1*-(2-Pyridin-4-yl-5,6,7,8,9, 10-hexahydro-11-thia-1,3-diaza-cycloocta[a]inden-4-yl)-propane-1,2-diamine] | 1 to 10 | – | –
10 | Cc1csc2nc(-c3ccncc3)nc(N3CCCNCC3)c12 [compound 95, 4-[1,4]Diazepan-1-yl-5-methyl-2-pyridin-4-yl-thieno[2,3-d]pyrimidine] | 0.1 to 1 | – | –
11 | Cc1sc2c(NC[C@@H](N)Cc3ccccc3)nc(-c3ccncc3)nc2c1Br [compound 300, (S)—N*1*-(7-bromo-6-methyl-2-pyridin-4-yl-thieno[3,2-d]pyrimidin-4-yl)-3-phenyl-propane-1,2-diamine] | – | – | IC50 (full-length human PKCι; [3]): < 0.1 µM
12 | N[C@H](CNc1nc(-c2ccncc2)nc2sc3c(c12)CCC1(C3)OCCO1)Cc1ccccc1 [compound 78, (S)-3-Phenyl-N*1*-*-1,4-Dioxa-spiro[7.7]-(2-pyridin-4-yl-5,6,7,8-tetrahydro-benzo[4,5]thieno[2,3-d]pyrimidin-4-yl)-propane-1,2-diamine] | – | – | IC50 (full-length human PKCι; [3]): 1 to 10 µM
13 | O=C(Nc1ccccc1)Nc1cc(-c2nc(N[C@@H]3CCNC3)c3sccc3n2)ccn1 [compound 575, 1-Phenyl-3-{4-[4-((R)-pyrrolidin-3-ylamino)-thieno[3,2-d]pyrimidin-2-yl]-pyridin-2-yl}-urea] | – | 0.1 to 1 | –
14 | N[C@H](CNc1nc(-c2ccncc2F)nc2c(C#CCCO)csc12)Cc1ccccc1 [compound 501, 4-[4-((S)-2-Amino-3-phenyl-propylamino)-2-(3-fluoro-pyridin-4-yl)-thieno[3,2-d]pyrimidin-7-yl]-but-3-yn-1-ol] | – | 0.1 to 1 | –
15 | O=C(Nc1cc(-c2nc(N[C@@H]3CCNC3)c3sccc3n2)ccn1)c1ccc(N2CCOCC2)cc1 [compound 621, 4-Morpholin-4-yl-N-{4-[4-((R)-pyrrolidin-3-ylamino)-thieno[3,2-d]pyrimidin-2-yl]-pyridin-2-yl}-benzamide] | – | 0.1 to 1 | –
16 | NCc1coc(-c2csc3c(NC[C@@H](N)Cc4ccccc4)nc(-c4ccncc4F)nc23)c1 [compound 435, S)-N*1*-[7-(4-Aminomethyl-furan-2-yl)-2-(3-fluoro-pyridin-4-yl)-thieno[3,2-d]pyrimidin-4-yl]-3-phenyl-propane-1,2-diamine] | – | 1 to 10 | –
17 | N[C@H](CNc1nc(-c2ccncc2)nc2c(C3CC3)csc12)Cc1ccccc1 [compound 413, (S)-N*1*-(7-Cyclopropyl-2-pyridin-4-yl-thieno[3,2-d]pyrimidin-4-yl)-3-phenyl-propane-1,2-diamine] | – | < 0.1 | –
18 | N#Cc1csc2c(NC[C@@H](N)Cc3ccccc3)nc(-c3ccncc3)nc12 [compound 560, 4-((S)-2-Amino-3-phenyl-propylamino)-2-pyridin-4-yl-thieno[3,2-d]pyrimidine-7-carbonitrile] | – | < 0.1 | –
19 | CC(C)(O)CC#Cc1csc2c(NC[C@@H](N)Cc3ccccc3)nc(-c3ccncc3)nc12 [compound 537, 5-[4-((S)-2-Amino-3-phenyl-propylamino)-2-pyridin-4-yl-thieno[3,2-d]pyrimidin-7-yl]-2-methyl-pent-4-yn-2-ol] | – | 0.1 to 1 | –
20 | CC(C)C[C@H](N)CNc1nc(-c2ccncc2)nc2c(Br)csc12 [compound 346, (S)-N*1*-(7-Bromo-2-pyridin-4-yl-thieno[3,2-d]pyrimidin-4-yl)-4-methyl-pentane-1,2-diamine] | – | 1 to 10 | –
21 | Cc1cc(Nc2csc3c(NC[C@@H](N)Cc4ccccc4)nc(-c4ccncc4)nc23)no1 [compound 490, N*4*-((S)-2-Amino-3-phenyl-propyl)-N*7*-(5-methyl-isoxazol-3-yl)-2-pyridin-4-yl-thieno[3,2-d]pyrimidine-4,7-diamine] | – | < 0.1 | –
22 | Fc1cnccc1-c1nc(N[C@@H]2CCNC2)c2scc(Nc3cccnc3)c2n1 [compound 494, 2-(3-Fluoro-pyridin-4-yl)-N*7*-pyridin-3-yl-N*4*- (R)-pyrrolidin-3-yl-thieno[3,2-d]pyrimidine-4,7-diamine] | – | 10 to 40 | –
23 | N[C@H](CNc1nc(-c2ccnc(NC(=O)c3cccs3)c2)nc2ccsc12)Cc1ccc(C(F)(F)F)cc1 [compound 630, Thiophene-2-carboxylic acid (4-{4-[(S)-2-amino-3-(4-trifluoromethyl-phenyl)-propylamino]-thieno[3,2-d]pyrimidin-2-yl}-pyridin-2-yl)-amide] | – | 10 to 40 | –
24 | COc1ncccc1-c1c(C)sc2c(NC[C@@H](N)Cc3ccccc3)nc(-c3ccncc3)nc12 [compound 465, (S)-N*1*-[7-(2-Methoxy-pyridin-3-yl)-6-methyl-2-pyridin-4-yl-thieno[3,2-d]pyrimidin-4-yl]-3-phenyl-propane-1,2-diamine] | – | 10 to 40 | –
25 | CC(C)(C)c1ccc(-c2cc3nc(-c4ccncc4)nc(N4CCNCC4)c3s2)cc1 [compound 357, 6-(4-tert-Butyl-phenyl)-4-piperazin-1-yl-2-pyridin-4-yl-thieno[3,2-d]pyrimidine] | – | 10 to 40 | –
26 | N[C@H](CNc1nc(-c2ccncc2)nc2sc3c(c12)CCCC3)Cc1ccccc1O [compound 65, 2-[(S)-2-amino-3-(2-pyridin-4-yl-5,6,7,8-tetrahydro-benzo[4,5]thieno[2,3-d]pyrimidin-4-ylamino)-propyl]-phenol] | – | – | IC50 (full-length human PKCι; [3]): < 0.1 µM
